What was measured:
TTRY78F [1] = biological target: T1, TTRY78F (Homo sapiens, UniProt P02766, Y98F); parameters: method as in PMID 15080795; conditions: 1:2 proportion of TTRY78F/inhibitor; cited from earlier work
TTRwt = TTRwt (Homo sapiens, UniProt P02766); assay: Tetramer dissociation in 6M urea monitored by far-UV circular dichroism; format: biochemical; conditions: TTRwt 3.6 µM, inhibitor 7.2 µM, 25 °C
Text: (§1) The stabilizing effect of iodine atoms on the tetrameric form of both TTRwt and TTRY78F has been further evaluted on urea induced dissociation experiments by comparing the performance of iododiflunisal versus diflunisal. Thus, after allowing maximum stabilization of the tetrameric forms of both TTR wild type and Y78F mutant proteins by formation of TTR/inhibitor complexes of (1:2) stoichiometry, measures of circular dichroism in the far-UV of changes in the secondary structure of TTR were recorded as a function of time in 6M urea solutions. It has been assumed that the rate of tetramer dissociation is irreversibly associated to fast monomer unfolding when employing urea concentrations exceeding those that may enable monomer refolding.
(§2) It is known that the dissociation of the tetrameric form of TTRwt takes an average of 42 h and the resulting monomers quickly unfold 500.000 times faster. Therefore the rate of dissociation can be estimated by lining it to unfolding which is irreversible in 6M urea. Thus, owing that the tetramer dissociation is the rate limiting step for fibrilogenesis and assuming the kinetic stabilizing mechanism of inhibition, good inhibitors should slow tetramer dissociation.
(§3) Although slow tetramer dissociation is not detectable by far-UV CD spectroscopy, this technique is very much suitable at monitoring the much faster unfolding step.The CD spectra of TTR corresponds to a typical β-sheet reach protein with a Cotton effect centered at 210 nm and a shoulder at 217 nm. This band gradually looses intensity as protein denaturation advances, therefore meaningful changes in the β-sheet content of the protein are normally recorded in the region of 210–250 nm. Below this region (190–210 nm) other interesting structural changes are masked by the high concentrations of urea required for denaturation. Results are here presented in unfolded fraction units which are calculated from each spectra assuming than at time zero the elipticity recorded corresponds to the fully folded protein while at 200 h this parameter agrees with a totally unfolded state.
(§4) Both proteins were incubated in buffered solutions of 6M urea in the presence and absence of 1:2 ratios of protein to inhibitor and far-UV CD spectra ([…]) were intermitently recorded for a period of 200 hours. […]
(§5) Protein stock solutions of wtTTR and TTRY78F of 1 mg/ml of protein in 50 mM of sodium phosphate buffer, 1mM EDTA, pH 7.0 were also prepared from mother solutions of both proteins containing 4 mg/mL (72.7 µM) of wtTTR and 3 mg/mL (55.5 µM) of TTRY78F that were determined by spectrophotometrical methods. […] The samples were incubated over a period of 200 hours at 25 °C and far-UV CD spectra (210-250 nm) were periodically recorded in a JASCO 600 instrument. […]

TTRY78F [2] = biological target: T1, TTRY78F; assay: as above; format: biochemical; conditions: TTRY78F 3.6 µM, inhibitor 7.2 µM, 25 °C
Text: as §1, §2, §3, §4, §5

[3] = system: natural TTR tetramers occurring in blood plasma of control and FAP patients; parameters: method as in PMID 15080795; conditions: cited from earlier work
[4] = biological target: T2, thyroid hormone receptor beta (Homo sapiens, UniProt P10828); assay: In vitro binding test to thyroid hormone receptors; conditions: data not shown
T2 sequence (P10828 1-461): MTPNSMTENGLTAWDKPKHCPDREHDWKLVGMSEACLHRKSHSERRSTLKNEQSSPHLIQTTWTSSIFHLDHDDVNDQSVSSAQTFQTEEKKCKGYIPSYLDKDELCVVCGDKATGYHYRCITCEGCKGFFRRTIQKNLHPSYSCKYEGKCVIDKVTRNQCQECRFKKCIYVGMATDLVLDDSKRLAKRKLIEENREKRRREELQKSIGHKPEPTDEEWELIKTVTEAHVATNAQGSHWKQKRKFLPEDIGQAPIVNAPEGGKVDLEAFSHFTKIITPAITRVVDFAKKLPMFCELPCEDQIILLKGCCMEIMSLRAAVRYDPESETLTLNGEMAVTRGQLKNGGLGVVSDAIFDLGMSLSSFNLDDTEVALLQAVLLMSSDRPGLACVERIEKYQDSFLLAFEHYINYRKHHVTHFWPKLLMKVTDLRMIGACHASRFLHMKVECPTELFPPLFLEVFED
Method: (§6) To gain further insight on the therapeutic potential of these iodinated TTR fibrillogenesis inhibitors, in vitro binding tests of idodiflunisal to thyroid hormone receptors alfa and beta were carried out (data not shown). […] This has been further confirmed by preclinical animal studies using a TTRV30M transgenic mice strain receiving 2.8 mg of iododiflunisal per day during 3 months. […] However, further preclinical tests are needed to validate these compounds as potential drugs for TTR related amyloidosis.

[5] = system: thyroid hormone receptor alfa; assay: In vitro binding test to thyroid hormone receptors; conditions: data not shown
Method: as §6

[6] = system: TTRV30M transgenic mice strain; assay: Preclinical animal study, 3 months; format: in vivo; conditions: 2.8 mg per day during 3 months
Method: as §6

TTR variant Y78F = TTR variant Y78F (Homo sapiens, UniProt P02766, Y98F); assay: Kinetic turbidity assay of acid induced fibril formation; format: biochemical; conditions: for IC50: inhibitor concentration at which the initial rate of fibril formation is half, Y78F TTR 0.4 mg/mL, pH 4.2, 37 °C, read-out: Kinetic turbidity assay IC50
Text: Two different parameters can be derived from this kinetic test. The IC50 value is the inhibitor concentration at which the initial rate of fibril formation is half than that in the absence of inhibitor. In turn, RA (%) can be defined as the percent reduction of fibril formation rate at high inhibitor concentration relative to the rate at zero concentration of tested compound.
An in vitro turbidimetric test in a high troughput mode was used to assess the fibrillogenesis inhibition potency of the compounds of the library. The mutant protein TTRY78F was incubated with various concentrations of test compounds in 96 well microplates. After lowering the pH of the solutions to 4.2, the incubation was extended for 1.5 h while recording the absorbance at 340 nm at 1 min intervals. […] (Figure S1).
The mutant Y78F TTR protein (0.4 mg.mL^-1) was incubated for 30 min (pH 7.6, 37 °C) with 6 concentrations of test compounds ranging from 0 to 40 µM in 96-well microplates.
IC50% value is the inhibitor concentration at which the initial rate of fibril formation is half of that in the absence of inhibitor. RA(%) is the percentage of reduction in fibril formation rate induced by a given concentration of test compound relative to the rate of experiments at zero concentration of test compound.

[7] = biological target: T3, recombinant wild type TTR (Homo sapiens, UniProt P02766); assay: T4 competition assay (125I-T4, gel filtration); format: binding; conditions: for affinity for TTR relative to T4, in words: from T4 displacement
T3 construct: made in house; host or cells: E. coli
Text: To evaluate the relative binding affinity of the compounds for TTR an already described procedure was followed.

SMILES | IC50 (TTR variant Y78F) [µM] | affinity for TTR relative to T4, in words [7] | aggregates seen by TEM (TTRY78F [1]) | protein denaturation (unfolding) after 200 h (TTRwt) [%] | protein denaturation (tetramer dissociation) after 200 h (TTRY78F [2]) [%] | further results
O=C(O)c1cc(-c2ccc(F)cc2F)ccc1O [1a, 2’,4’-difluoro-4-hydroxy-[1,1’]-biphenyl-3-carboxylic acid, reference compound] | – | – | still allow amyloid precipitates to occur | 60 | 80 | –
O=C(O)c1cc(-c2ccc(F)cc2F)cc(I)c1O [1b, 2’,4’-difluoro-4-hydroxy-5-iodo-[1,1’]-biphenyl-3-carboxylic acid] | – | – | completely prevented | 30 | 30 | stabilizing effect on TTR tetramers [3]: more potent stabilizing effect; binding constants [4]: almost negligible; binding constants [5]: almost negligible; metabolic disfunctions [6]: did not show significant metabolic disfunctions

More lines, main results first:

IC50 (TTR variant Y78F) [µM] | affinity for TTR relative to T4, in words [7] | SMILES | aggregates seen by TEM (TTRY78F [1]) | protein denaturation (unfolding) after 200 h (TTRwt) [%] | protein denaturation (tetramer dissociation) after 200 h (TTRY78F [2]) [%] | further results
5.7 | higher affinity values for TTR than T4 | CCOC(=O)[C@H](C)NC(=O)c1cc(-c2ccc(F)cc2F)cc(I)c1O [11b, N-[2’,4’-difluoro-4-hydroxy-5-iodo-[1,1’]-biphenyl-3-carbonyl]-L-alanine ethyl ester] | – | – | – | –
5.8 | higher affinity values for TTR than T4 | COC(=O)C(CC(=O)OC(C)(C)C)NC(=O)c1cc(-c2ccc(F)cc2F)cc(I)c1O [19b, N-[2’,4’-difluoro-4-hydroxy-5-iodo-[1,1’]-biphenyl-3-carbonyl]-L-aspartic α-methyl ester and β-tert-butyl ester] | – | – | – | –
– | equal affinity for TTR than T4 | O=C(O)CCNC(=O)c1cc(-c2ccc(F)cc2F)cc(I)c1O [22b, N-[2’-,4’-difluoro-4-hydroxy-5-iodo-[1,1’]-biphenyl-3-carbonyl]-β-alanine] | – | – | – | fibrillogenesis inhibitory potency, in words (TTR variant Y78F): very potent inhibitor; T4 Displacement EC50(T4)/EC50(I) ([7]; wild type TTR 30 nM, 125I-T4, test compounds 0-10 µM, relative to cold T4): 0.95
